From patent publication US20210395239A1 (Hoffmann-La Roche Inc., priority 2018, published 2021)
pIC50: −log10 of the molar value.

target: T1, hTLR9 (Homo sapiens, UniProt Q9NR96); experiment: HEK293-Blue-hTLR-9 cells assay (SEAP reporter, ODN2006 stimulation); assay type: cell-based; parameters: host or cells: HEK293 (HEK-Blue hTLR9); details: HEK293-Blue-hTLR9 cells, ODN2006, 20 hrs; read-out: HEK/hTLR9 IC50
T1 sequence (Q9NR96 26-1032): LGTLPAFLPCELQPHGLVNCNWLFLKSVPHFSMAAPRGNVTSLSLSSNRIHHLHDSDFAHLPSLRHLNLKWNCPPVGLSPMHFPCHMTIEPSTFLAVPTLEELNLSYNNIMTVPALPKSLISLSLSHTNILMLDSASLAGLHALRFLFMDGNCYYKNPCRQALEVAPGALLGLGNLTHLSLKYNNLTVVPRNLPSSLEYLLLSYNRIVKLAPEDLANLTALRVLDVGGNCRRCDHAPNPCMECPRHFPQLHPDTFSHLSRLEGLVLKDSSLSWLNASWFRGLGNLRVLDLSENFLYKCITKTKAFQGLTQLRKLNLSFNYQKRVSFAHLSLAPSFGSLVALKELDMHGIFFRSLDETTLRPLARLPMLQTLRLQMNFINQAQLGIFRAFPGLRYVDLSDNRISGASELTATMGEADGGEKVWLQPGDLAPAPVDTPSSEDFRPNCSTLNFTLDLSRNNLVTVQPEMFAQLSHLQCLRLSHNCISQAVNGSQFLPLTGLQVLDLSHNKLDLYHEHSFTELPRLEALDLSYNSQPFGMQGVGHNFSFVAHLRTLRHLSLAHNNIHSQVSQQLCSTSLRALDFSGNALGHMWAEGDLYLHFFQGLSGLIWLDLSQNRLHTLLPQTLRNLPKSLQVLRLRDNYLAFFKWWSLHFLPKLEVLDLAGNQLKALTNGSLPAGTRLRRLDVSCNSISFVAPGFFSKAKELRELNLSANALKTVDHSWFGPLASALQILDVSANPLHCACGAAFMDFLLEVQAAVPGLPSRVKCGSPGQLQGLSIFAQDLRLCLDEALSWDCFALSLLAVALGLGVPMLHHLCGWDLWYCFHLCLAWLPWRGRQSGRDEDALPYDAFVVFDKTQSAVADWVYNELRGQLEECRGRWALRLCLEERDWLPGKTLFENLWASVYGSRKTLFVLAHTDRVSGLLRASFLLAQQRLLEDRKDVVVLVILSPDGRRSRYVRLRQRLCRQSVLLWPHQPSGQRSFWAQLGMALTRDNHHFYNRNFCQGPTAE
In short: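 Antagonism read as lowered SEAP reporter absorbance (620–655 nm, QUANTI-Blue, 2 h, 37 °C) in supernatants. Before that, ODN2006-stimulated HEK293-Blue cells stably expressing human TLR9 were exposed to compound dilutions at 1% final DMSO for 20 h at 37 °C.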

| SMILES | pIC50 |
| --- | --- |
| C[C@@H]1CN(c2ccc(C#N)c3ncccc23)C[C@H](CN2CCN(c3ccnc(N4CC(N)C4)n3)CC2)O1 [Example 23, 5-[(2S,6R)-2-[[4-[2-(3-aminoazetidin-1-yl)pyrimidin-4-yl]piperazin-1-yl]methyl]-6-methyl-morpholin-4-yl]quinoline-8-carbonitrile] | 6.63 |
| C[C@@H]1CN(c2ccc(C#N)c3ncccc23)C[C@H](CN2CCN(c3ccnc(N[C@H]4CNC[C@H]4F)n3)CC2)O1 [Example 24, 5-[(2S,6R)-2-[[4-[2-[[(3S,4R)-4-fluoropyrrolidin-3-yl]amino]pyrimidin-4-yl]piperazin-1-yl]methyl]-6-methyl-morpholin-4-yl]quinoline-8-carbonitrile] | 7.49 |
| C[C@@H]1CN(c2ccc(C#N)c3ncccc23)C[C@H](CN2CCN(c3ccnc(N4CCNCC(O)C4)n3)CC2)O1 (stereo partly drawn) [Example 25, 5-[(2S,6R)-2-[[4-[2-(6-hydroxy-1,4-diazepan-1-yl)pyrimidin-4-yl]piperazin-1-yl]methyl]-6-methyl-morpholin-4-yl]quinoline-8-carbonitrile] | 7.48 |
| CO[C@H]1CN(c2nccc(N3CCN(C[C@H]4CN(c5ccc(C#N)c6ncccc56)C[C@@H](C)O4)CC3)n2)C[C@@H]1N [Example 26, 5-[(2S,6R)-2-[[4-[2-trans-(3-amino-4-methoxy-pyrrolidin-1-yl)pyrimidin-4-yl]piperazin-1-yl]methyl]-6-methyl-morpholin-4-yl]quinoline-8-carbonitrile] | 7.49 |
| C[C@@H]1CN(c2ccc(C#N)c3ncccc23)C[C@H](CN2CCN(c3ccnc(N4CCC(N)CC4)n3)CC2)O1 [Example 27, 5-[(2S,6R)-2-[[4-[2-(4-amino-1-piperidyl)pyrimidin-4-yl]piperazin-1-yl]methyl]-6-methyl-morpholin-4-yl]quinoline-8-carbonitrile] | 7.37 |
| C[C@@H]1CN(c2ccc(C#N)c3ncccc23)C[C@H](CN2CCN(c3ccnc(NC4CNC4)n3)CC2)O1 [Example 28, 5-[(2S,6R)-2-[[4-[2-(azetidin-3-ylamino)pyrimidin-4-yl]piperazin-1-yl]methyl]-6-methyl-morpholin-4-yl]quinoline-8-carbonitrile] | 7.19 |
| C[C@@H]1CN(c2ccc(C#N)c3ncccc23)C[C@H](CN2CCN(c3ccnc(N4CCN[C@@H](CO)C4)n3)CC2)O1 [Example 29, 5-[(2S,6R)-2-[[4-[2-[(3R)-3-(hydroxymethyl)piperazin-1-yl]pyrimidin-4-yl]piperazin-1-yl]methyl]-6-methyl-morpholin-4-yl]quinoline-8-carbonitrile] | 7.29 |
| C[C@@H]1CN(c2ccc(C#N)c3ncccc23)C[C@H](CN2CCN(c3ccnc(OCCN(C)C)n3)CC2)O1 [Example 30, 5-[(2S,6R)-2-[[4-[2-[2-(dimethylamino)ethoxy]pyrimidin-4-yl]piperazin-1-yl]methyl]-6-methyl-morpholin-4-yl]quinoline-8-carbonitrile] | 6.60 |
| C[C@@H]1CN(c2ccc(C#N)c3ncccc23)C[C@H](CN2CCN(c3ccnc(N4CCN(C(=O)[C@@H]5CCCN5)CC4)n3)CC2)O1 [Example 31, 5-[(2R,6S)-2-methyl-6-[[4-[2-[4-[(2S)-pyrrolidine-2-carbonyl]piperazin-1-yl]pyrimidin-4-yl]piperazin-1-yl]methyl]morpholin-4-yl]quinoline-8-carbonitrile] | 7.34 |
| C[C@@H]1CN(c2ccc(C#N)c3ncccc23)C[C@H](CN2CCN(c3ccnc(N4CCN(C(=O)CN(C)C)CC4)n3)CC2)O1 [Example 32, 5-[(2S,6R)-2-[[4-[2-[4-[2-(dimethylamino)acetyl]piperazin-1-yl]pyrimidin-4-yl]piperazin-1-yl]methyl]-6-methyl-morpholin-4-yl]quinoline-8-carbonitrile] | 7.14 |
| C[C@@H]1CN(c2ccc(C#N)c3ncccc23)C[C@H](CN2CCN(c3cccc(N4CCN(C)CC4)n3)CC2)O1 [Example 33, 5-[(2R,6S)-2-methyl-6-[[4-[6-(4-methylpiperazin-1-yl)-2-pyridyl]piperazin-1-yl]methyl]morpholin-4-yl]quinoline-8-carbonitrile] | 6.94 |
| C[C@@H]1CN(c2ccc(C#N)c3ncccc23)C[C@H](CN2CCN(c3ccnc(N4CCN(C(=O)C5CCN5)CC4)n3)CC2)O1 (stereo partly drawn) [Example 34, 5-[(2S,6R)-2-[[4-[2-[4-(azetidine-2-carbonyl)piperazin-1-yl]pyrimidin-4-yl]piperazin-1-yl]methyl]-6-methyl-morpholin-4-yl]quinoline-8-carbonitrile] | 7.15 |
| C[C@@H]1CN(c2ccc(C#N)c3ncccc23)C[C@H](CN2CCN(c3cccc(N[C@H]4CNC[C@@H]4F)n3)CC2)O1 [Example 35, 5-[(2S,6R)-2-[[4-[6-[[(3S,4S)-4-fluoropyrrolidin-3-yl]amino]-2-pyridyl]piperazin-1-yl]methyl]-6-methyl-morpholin-4-yl]quinoline-8-carbonitrile] | 6.83 |
| C[C@@H]1CN(c2ccc(C#N)c3ncccc23)C[C@H](CN2CCN(c3cccc(N4CCC(N)CC4)n3)CC2)O1 [Example 36, 5-[(2S,6R)-2-[[4-[6-(4-amino-1-piperidyl)-2-pyridyl]piperazin-1-yl]methyl]-6-methyl-morpholin-4-yl]quinoline-8-carbonitrile] | 6.93 |
| C[C@@H]1CN(c2ccc(C#N)c3ncccc23)C[C@H](CN2CCN(c3cccc(N[C@H]4CNC[C@H]4F)n3)CC2)O1 [Example 37, 5-[(2S,6R)-2-[[4-[6-[[(3S,4R)-4-fluoropyrrolidin-3-yl]amino]-2-pyridyl]piperazin-1-yl]methyl]-6-methyl-morpholin-4-yl]quinoline-8-carbonitrile] | 6.63 |
| C[C@@H]1CN(c2ccc(C#N)c3ncccc23)C[C@H](CN2CCN(c3cccc(NC4CNC4)n3)CC2)O1 [Example 38] | 7.01 |
| C[C@@H]1CN(c2ccc(C#N)c3ncccc23)C[C@H](CN2CCN(c3cccc(N4CC(N)C(F)C4)n3)CC2)O1 (stereo partly drawn) [Example 40, 5-[(2S,6R)-2-[[4-[6-(3-amino-4-fluoro-pyrrolidin-1-yl)-2-pyridyl]piperazin-1-yl]methyl]-6-methyl-morpholin-4-yl]quinoline-8-carbonitrile] | 6.87 |
| C[C@@H]1CN(c2ccc(C#N)c3ncccc23)C[C@H](CN2CCN(c3cccc(N4CCNCC(O)C4)n3)CC2)O1 (stereo partly drawn) [Example 41, 5-[(2S,6R)-2-[[4-[6-(6-hydroxy-1,4-diazepan-1-yl)-2-pyridyl]piperazin-1-yl]methyl]-6-methyl-morpholin-4-yl]quinoline-8-carbonitrile] | 6.82 |
| CO[C@H]1CN(c2cccc(N3CCN(C[C@H]4CN(c5ccc(C#N)c6ncccc56)C[C@@H](C)O4)CC3)n2)C[C@H]1N [Example 42, 5-[(2S,6R)-2-[[4-[6-[(3R,4S)-3-amino-4-methoxy-pyrrolidin-1-yl]-2-pyridyl]piperazin-1-yl]methyl]-6-methyl-morpholin-4-yl]quinoline-8-carbonitrile] | 6.83 |
| COC1CN(c2ccc(N3CCN(C[C@H]4CN(c5ccc(C#N)c6ncccc56)C[C@@H](C)O4)CC3)cn2)CC1N (stereo partly drawn) [Example 43, 5-[(2S,6R)-2-[[4-[6-(3-amino-4-methoxy-pyrrolidin-1-yl)-3-pyridyl]piperazin-1-yl]methyl]-6-methyl-morpholin-4-yl]quinoline-8-carbonitrile] | 6.92 |
| C[C@@H]1CN(c2ccc(C#N)c3ncccc23)C[C@H](CN2CCN(c3ccc(N4CC(N)C(F)C4)nc3)CC2)O1 (stereo partly drawn) [Example 44, 5-[(2S,6R)-2-[[4-[6-(3-amino-4-fluoro-pyrrolidin-1-yl)-3-pyridyl]piperazin-1-yl]methyl]-6-methyl-morpholin-4-yl]quinoline-8-carbonitrile] | 6.79 |
| C[C@@H]1CN(c2ccc(C#N)c3ncccc23)C[C@H](CN2CCN(c3nc(N4CCNCC4)ncc3F)CC2)O1 [Example 45, 5-[(2S,6R)-2-[[4-(5-fluoro-2-piperazin-1-yl-pyrimidin-4-yl)piperazin-1-yl]methyl]-6-methyl-morpholin-4-yl]quinoline-8-carbonitrile] | 6.73 |
| Cc1nc(N2CCNCC2)nc(N2CCN(C[C@H]3CN(c4ccc(C#N)c5ncccc45)C[C@@H](C)O3)CC2)c1C [Example 46, 5-[(2S,6R)-2-[[4-(5,6-dimethyl-2-piperazin-1-yl-pyrimidin-4-yl)piperazin-1-yl]methyl]-6-methyl-morpholin-4-yl]quinoline-8-carbonitrile] | 6.80 |
